The target of test [1] is T1, SOS1 catalytic domain (residues 564-1049) (Homo sapiens, UniProt Q07889).
T1 sequence (Q07889 564-1049): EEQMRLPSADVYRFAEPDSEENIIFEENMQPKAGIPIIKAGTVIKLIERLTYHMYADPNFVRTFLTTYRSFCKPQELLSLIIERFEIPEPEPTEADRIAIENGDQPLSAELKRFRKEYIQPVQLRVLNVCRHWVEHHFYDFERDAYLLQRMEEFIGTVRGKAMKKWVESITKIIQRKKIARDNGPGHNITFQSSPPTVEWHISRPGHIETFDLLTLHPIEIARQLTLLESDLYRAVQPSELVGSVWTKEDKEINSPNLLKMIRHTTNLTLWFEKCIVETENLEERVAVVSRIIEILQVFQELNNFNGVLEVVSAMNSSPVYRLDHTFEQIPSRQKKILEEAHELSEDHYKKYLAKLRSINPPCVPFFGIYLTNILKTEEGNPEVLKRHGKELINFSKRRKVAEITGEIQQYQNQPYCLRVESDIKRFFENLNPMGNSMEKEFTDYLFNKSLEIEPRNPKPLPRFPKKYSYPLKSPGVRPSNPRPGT
The test can be described thus: Potency Assay: binding affinity to SOS1 using Surface Plasmon Resonance (SPR). On the set-up: SOS1 catalytic domain (residues 564-1049) immobilized on a sensor chip. Particulars: immobilized SOS1 catalytic domain (residues 564-1049), read-out: SOS1 SPR Equilibrium Kd. The protocol: Data was reported as equilibrium dissociation constant (Kd) values.
Using a GE Biacore 8K SPR instrument, avi-tagged SOS1 catalytic domain protein was immobilized to a level of approximately 6000 response units (RU) on a streptavidin-coated SPR sensor chip in assay buffer containing 0.01 M HEPES, 0.15 M NaCl and 0.05% v/v Surfactant P20. […] For each test compound, a separate 0 μM sample was generated for use during subsequent double reference subtraction. Serially for each test compound, individual dilution samples were flowed over the immobilized SOS1 protein at a flow rate of 50 μL/minute to monitor the association with SOS1. Dissociation of bound test compound from the SOS1 protein was immediately monitored by flowing assay buffer over the sensor surface and monitoring the decrease in binding signal back to the baseline level seen in the absence of compound. This was repeated for all compound dilutions in each series. The binding level response for each test compound concentration was noted immediately prior to the end of the association phase, and a secondary plot generated showing binding response level versus test compound concentration generated for each compound dilution series.

Test [2] has as its target T1, SOS1 catalytic domain (residues 564-1049). The test can be described thus: Mode of Action Assay: inhibition of SOS1 nucleotide exchange activity (SOS1 TR-FRET IC50 Assay). Background: Time-resolved FRET reads energy transfer from a long-lived donor to a nearby acceptor.
Test [3] concerns PC-9 cells (EGFR Ex19Del). Description: Potency Assay: pERK (SOS1 pERK IC50 Assay, AlphaLISA SureFire Ultra p-ERK1/2). Particulars: Homo sapiens, read-out: SOS1 pERK IC50. In kind it is cell-based. In short, it runs like this: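 Cellular pERK1/2 by AlphaLISA SureFire Ultra after 1 h compound exposure (37° C., highest concentration 10 μM, 3-fold steps, duplicates) of EGFR Ex19Del PC-9 cells seeded the day before. A 4-parameter fit of signal versus log concentration gives IC50.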
In general terms: Bead proximity is the source of the signal in Alpha formats.

Where [4] appears, read: PC-9 cells (EGFR Ex19Del), 1 hour incubation, AlphaLISA p-ERK1/2.

Molecules are shown by their SMILES. Counter-ions that a name gives are not always drawn. Like-named read-outs stand apart in the source and are kept apart here.

For the compound `C[C@@H]1COC[C@H](C)N1C(=O)N1Cc2nc(Cl)nc(N[C@H](C)c3cc(N)cc(C(F)(F)F)c3)c2C1` [Example 164], the Kd in test [1] was < 400 nM.

Consider `CCOCCS(=O)(=O)N1Cc2nc(Cl)nc(N[C@H](C)c3cc(N)cc(C(F)(F)F)c3)c2C1` [Example 50], for which, in test [1], the Kd is > 400 nM. For the same compound, the IC50 in test [2] was > 1000 nM.

`Cc1nc2c(c(N[C@H](C)c3cc(N)cc(C(F)(F)F)c3)n1)CN(c1ccc(Br)cn1)C2` [Example 44, N-[(1R)-1-[3-amino-5-(trifluoromethyl)phenyl]ethyl]-6-(5-bromo-2-pyridyl)-2-methyl-5,7-dihydropyrrolo[3,4-d]pyrimidin-4-amine]: in test [1], the Kd is > 400 nM. Further, the IC50 in test [2] was > 1000 nM.

As for `C[C@@H](Nc1nc(Cl)nc2c1CN(C(=O)N1CCC3(CC1)COC3)C2)c1cc(N)cc(C(F)(F)F)c1` [Example 159], in test [1], the Kd is < 400 nM. In test [2], the IC50 is < 1000 nM.

As to `C[C@@H](Nc1nc(Cl)nc2c1CN(C(=O)C1CC(=O)N(c3ccc4c(c3)OCO4)C1)C2)c1cc(N)cc(C(F)(F)F)c1` (some centres unmarked) [Example 106], the dissociation constant Kd in test [1] is < 400 nM.

Regarding `CC(=O)N1CC(F)(C(=O)N2Cc3nc(Cl)nc(N[C@H](C)c4cccc(C(F)F)c4F)c3C2)C1` [Example 347], the Kd in test [1] is < 400 nM. Moreover, the IC50 in test [2] was < 1000 nM.

On to `COC(=O)N1Cc2nc(C)nc(N[C@H](C)c3cc(N)cc(C(F)(F)F)c3)c2C1` [Example 117, methyl 4-{[(1R)-1-[3-amino-5-(trifluoromethyl)phenyl]ethyl]amino}-2-methyl-5H,6H,7H-pyrrolo[3,4-d]pyrimidine-6-carboxylate], for which the Kd in test [1] is > 400 nM.

Regarding `C[C@@H](Nc1nc(Cl)nc2c1CN(C(=O)N1CCc3ncncc3C1)C2)c1cc(N)cc(C(F)(F)F)c1` [Example 144], the Kd in test [1] was < 400 nM.

With `C[C@@H](Nc1nccc2nc(C(=O)N3CCNCC3)cn12)c1cccc(C(F)F)c1F` [Example 530, [5-[[(1R)-1-[3-(difluoromethyl)-2-fluoro-phenyl]ethyl]amino]imidazo[1,2-c]pyrimidin-2-yl]-piperazin-1-yl-methanone hydrochloride], the Kd in test [1] is < 400 nM.

Consider `C[C@@H](Nc1nc(Cl)nc2c1CN(C(=O)N1CC[C@H](O)C1)C2)c1cc(N)cc(C(F)(F)F)c1` [Example 161], for which the Kd in test [1] is < 400 nM.

Turning to `C[C@@H](Nc1nc(Cl)nc2c1CN(C(=O)N1C[C@H]3COC[C@H]3C1)C2)c1cc(N)cc(C(F)(F)F)c1` [Example 149], in test [1], the Kd is < 400 nM.

For the compound `C[C@@H](Nc1nc(Cl)nc2c1CN(S(=O)(=O)N1CCNCC1)C2)c1cc(N)cc(C(F)(F)F)c1` [Example 28], in test [1], the Kd is < 400 nM.

In the case of `C[C@@H](Nc1nc(Cl)nc2c1CN(C(=O)C1(N)CCCOC1)C2)c1cc(N)cc(C(F)(F)F)c1` (some centres unmarked) [Example 88], the Kd in test [1] is < 400 nM.

On to `C[C@@H](Nc1nc(Cl)nc2c1CN(C(=O)N1CCC(O)CC1)C2)c1cc(N)cc(C(F)(F)F)c1` [Example 155], for which the Kd in test [1] was < 400 nM.

In the case of `C[C@@H](Nc1nc(Cl)nc2c1CN(C(=O)C1CC3(CNC3)C1)C2)c1cc(N)cc(C(F)(F)F)c1` [Example 98], the Kd in test [1] was < 400 nM.

In the case of `C[C@@H](Nc1nc(Cl)nc2c1CN(C(=O)N1C3CCC1COC3)C2)c1cc(N)cc(C(F)(F)F)c1` [Example 158], the Kd in test [1] is < 400 nM.

For the compound `C[C@@H](Nc1nc(Cl)nc2c1CN(C(=O)N1CCC(C)(N)CC1)C2)c1cc(N)cc(C(F)(F)F)c1` [Example 157], in test [1], the Kd was < 400 nM.

With `C[C@@H](Nc1nc(Cl)nc2c1CN(C(=O)N1CC3CCC(C1)O3)C2)c1cc(N)cc(C(F)(F)F)c1` [Example 153], in test [1], the Kd was < 400 nM.

As for `C[C@@H](Nc1nc(Cl)nc2c1CN(C(=O)N1CC3(CCCO3)C1)C2)c1cc(N)cc(C(F)(F)F)c1` [Example 156], the dissociation constant (Kd) in test [1] is < 400 nM.

With `C[C@@H](Nc1nc(Cl)nc2c1CN(C(=O)c1cc3c(s1)CCOC3)C2)c1cc(N)cc(C(F)(F)F)c1` [Example 105], the Kd in test [1] was > 400 nM.

Consider `C[C@@H](Nc1nc(Cl)nc2c1CN(S(=O)(=O)N1CC(C#N)C1)C2)c1cc(N)cc(C(F)(F)F)c1` [Example 26], for which the Kd in test [1] is > 400 nM.

Take `Cc1nc2c(c(N[C@H](C)c3cc(N)cc(C(F)(F)F)c3)n1)CN(C(=O)C1CCN(C)CC1)C2` [Example 109, [4-[[(1R)-1-[3-amino-5-(trifluoromethyl)phenyl]ethyl]amino]-2-methyl-5,7-dihydropyrrolo[3,4-d]pyrimidin-6-yl]-(1-methyl-4-piperidyl)methanone]: the concentration for half-maximal inhibition (IC50) in test [2] is < 1000 nM; in test [3] (PC-9, 1 h), > 1000 nM.

For `C[C@@H](Nc1nc(Cl)nc2c1CN(C(=O)N1CCOCC1)C2)c1cccc(C(F)(F)F)n1` [Example 473, 2-chloro-6-(morpholine-4-carbonyl)-N-[(1R)-1-[6-(trifluoromethyl)pyridin-2-yl]ethyl]-5H,6H,7H-pyrrolo[3,4-d]pyrimidin-4-amine], the 50% inhibitory concentration (IC50) in test [2] and in test [3] (setting [4]) was > 1000 nM throughout.

For the compound `CC(Nc1nc(Cl)nc2c1CN(C(=O)N1CCOCC1)C2)c1nccc(C(F)F)c1F` (centres unmarked) [Example 521, 2-chloro-N-{1-[4-(difluoromethyl)-3-fluoropyridin-2-yl]ethyl}-6-(morpholine-4-carbonyl)-5H,6H,7H-pyrrolo[3,4-d]pyrimidin-4-amine], the IC50 is > 1000 nM in test [2] and > 1000 nM in test [3] (PC-9, 1 h).

On to `C[C@@H](Nc1nc(Cl)nc2c1CN(C(=O)C13CCC(CC1)O3)CC2)c1cc(N)cc(C(F)(F)F)c1` [Example 218], for which the IC50 in test [2] and in test [3] (setting [4]) was > 1000 nM each time.

For `CC(Nc1nc(Cl)nc2c1CN(C(=O)N1CCOCC1)C2)c1cccc2c1C[C@H](CO)C2` (stereo in doubt) [Example 464, (2-chloro-4-(((R)-1-((R)-2-(hydroxymethyl)-2,3-dihydro-1H-inden-4-yl)ethyl)amino)-5,7-dihydro-6H-pyrrolo[3,4-d]pyrimidin-6-yl)(morpholino)methanone], the IC50 was < 1000 nM in test [2] and > 1000 nM in test [3] (setting [4]).

Consider `C[C@@H](Nc1nc(Cl)nc2c1CN(C(=O)C1CC3(CCNCC3)C1)C2)c1cc(N)cc(C(F)(F)F)c1` [Example 79], for which the Kd in test [1] was < 400 nM.

On to `C[C@@H](Nc1nc(Cl)nc2c1CN(C(=O)[C@H]1[C@@H]3CNC[C@@H]31)C2)c1cc(N)cc(C(F)(F)F)c1` [Example 269], for which the figures for the IC50 in test [2] and in test [3] (setting [4]) were < 1000 nM and > 1000 nM, respectively.

With `C[C@@H](Nc1nc(Cl)nc2c1CN(C(=O)[C@]13COC[C@H]1CS(=O)(=O)C3)CC2)c1cc(N)cc(C(F)(F)F)c1` [Example 215], the half-maximal inhibitory concentration (IC50) in test [2] and in test [3] (setting [4]) was > 1000 nM each time.

Turning to `C[C@@H](Nc1nc(Cl)nc2c1CN(C(=O)N1CCOCC1)C2)c1cccc(C(F)(F)COC2CC2)c1` [Example 531, [2-chloro-4-[[(1R)-1-[3-[2-(cyclopropoxy)-1,1-difluoro-ethyl]phenyl]ethyl]amino]-5,7-dihydropyrrolo[3,4-d]pyrimidin-6-yl]-morpholino-methanone], the IC50 in test [2] is < 1000 nM; in test [3] (PC-9, 1 h), < 1000 nM.

On to `C[C@@H](Nc1nc(Cl)nc2c1CN(C(=O)C1OCCN(C)C1=O)C2)c1cccc(C(F)F)c1F` (some centres unmarked) [Example 301], for which the IC50 in test [2] and in test [3] (setting [4]) was < 1000 nM each time.

`CC(Nc1nc(Cl)nc2c1CN(C(=O)N1CCOCC1)C2)c1cccc(CCO)c1` (centres unmarked) [Example 501, 2-[3-(1-{[2-chloro-6-(morpholine-4-carbonyl)-5H,6H,7H-pyrrolo[3,4-d]pyrimidin-4-yl]amino}ethyl)phenyl]ethan-1-ol]: the IC50 is < 1000 nM in test [2] and > 1000 nM in test [3] (setting [4]).

`C[C@@H](Nc1nc(Cl)nc2c1CN(C(=O)N1CCOCC1)C2)c1cnc(C(F)(F)F)s1` [Example 474, 2-chloro-6-(morpholine-4-carbonyl)-N-[(1R)-1-[2-(trifluoromethyl)-1,3-thiazol-5-yl]ethyl]-5H,6H,7H-pyrrolo[3,4-d]pyrimidin-4-amine]: the IC50 in test [2] and in test [3] (setting [4]) was > 1000 nM throughout.

Consider `Cc1c(C(C)Nc2nc(Cl)nc3c2CN(C(=O)N2CCOCC2)C3)cccc1C(F)(F)F` (centres unmarked) [Example 499], for which the IC50 in test [2] is > 1000 nM; in test [3] (setting [4]), < 1000 nM.

As usually defined, the Kd is a measure of binding affinity in units of concentration. As a reminder, the IC50 is the concentration that gives 50% inhibition.

The values above are taken from patent publication US20230096028A1, “BICYCLIC HETEROCYCLYL COMPOUNDS AND USES THEREOF” (Revolution Medicines, Inc., priority 2019, published 2023).
